Values quoted from earlier work as cited in US20160249623A1, “METHODS FOR DISPENSING SALT-FREE HYPOCHLOROUS ACID FOR HAND-SANITIZING” (priority 2015, published 2016).

What was measured:
[1] = system: HIV (Human Immunodeficiency Virus); settings: the longest kill-time
[2] = system: all viruses, bacteria, mold and spores

With `OCl` [HOCI, hypochlorous acid] as the molecule, how does the kill-time [1] read?
Its kill-time is “less than 1 minute”.

What about the kill-time [2] of the same molecule?
The kill-time was “within seconds”.
